For 19 compounds, IC50 results are on record in patent US12312370B2, “Immunoproteasome inhibitors” (Principia Biopharma Inc., priority 2017, dated 2025).

The target in test [1] is immunoproteasome LPM2/β1i subunit (Homo sapiens, UniProt P28065). The test can be described thus: Caliper-based proteasome enzymatic activity assay, LMP2. Format: biochemical. The settings on record: human recombinant immunoproteasome 0.3 nM, FAM-labeled peptide substrate 1 μM, rt 2 h.
For test [2], the target named is PBMC/LMP7 (Homo sapiens, UniProt P28062). As to the kind of experiment: Proteasome-Glo inhibition of proteasome activity in cells, PBMC/LMP7. Format: cell-based. The settings on record: 2 h incubation at 37° C. The protocol:
The cell-based effects of a compound described herein on the immunoproteasome were determined by measuring inhibition of proteasome activity in cells using the Proteasome-Glo™ Cell-Based Reagent (Promega, Madison WI). The Proteasome-Glo™ assay contains a specific luminogenic proteasome substrate in a buffer optimized for cell permeabilization, proteasome activity, and luciferase activity. For the chymotrypsin-like activity (LMP7 and β5c), the peptide substrate is Suc-LLVY-aminoluciferin (Succinyl-leucine-leucine-valine-tyrosine-aminoluciferin). Cleavage of the substrate by proteasome results in luminescent signal which is proportional to the proteasome activity. The cell line THP-1 (a monocytic leukemia cell line enriched in immunoproteasome), the cell line HT-29 (a colorectal adenocarcinoma cell line enriched in constitutive proteasome), and primary human peripheral blood mononuclear cells (PBMC) were used to assess proteasome activity. Cells were seeded in a 96-well plate at 10,000 cells per well in RPMI 1640 high glucose medium with 10% fetal bovine scrum (FBS). Compound dilutions were added to cells starting at a concentration of 5 uM and decreasing in tripling dilutions. The final DMSO concentration was 1%. The concentration range was adjusted as needed for compounds of different potencies. The cells treated with compounds were incubated for 2 h at 37° C. in 5% CO2. At the end of the 2 hour incubation period, cells were transferred to white 384 well assay plates. 20 uL of Proteasome-Glo™ Reagent was added to each well and incubated for 10 minutes at rt. The plate was read in the Analyst HT instrument (Molecular Devices, Sunnyvale, CA) using luminescence mode. The percent inhibition of activity was plotted as a function of log compound concentration. The IC50 was then calculated for each compound using Prism software from GraphPad Software Inc. (San Diego, CA).

Test [3] addresses constitutive proteasome β5c unit (Homo sapiens, UniProt P28074). The test can be described thus: Caliper-based proteasome enzymatic activity assay, β5c. Format: biochemical. The settings on record: human recombinant constitutive proteasome 0.3 nM, FAM-labeled peptide substrate 1 μM, rt 3 h; read-out: β5c subunit IC50.
Test [4] concerns the target immunoproteasome LMP7/B5i subunit (Homo sapiens, UniProt P28062). As to the kind of experiment: Caliper-based proteasome enzymatic activity assay, LMP7. Format: biochemical. The settings on record: human recombinant immunoproteasome 0.3 nM, FAM-labeled peptide substrate 1 μM, rt 3 h; read-out: LMP7 subunit IC50.

Broadly, the IC50 is the point on the concentration scale where inhibition reaches its midpoint. Consider `CC(C)C=C(C#N)C(=O)NCCCC[C@H](NC(=O)c1cc(Cl)ccc1Cl)C(=O)N[C@@H](Cc1ccccc1)B(O)O` [Example 8, ((R)-1-((S)-6-(2-cyano-4-methylpent-2-enamido)-2-(2,5-dichlorobenzamido)hexanamido)-2-phenylethyl)boronic acid], for which the IC50 came to 79 nM in test [1], 39 nM in test [2], 4.4 nM in test [3] and 2.4 nM in test [4].

Turning to `CC(=O)N[C@@H](CCCCNC(=O)C(C#N)=CC(C)C)C(=O)N[C@@H](Cc1ccccc1)B(O)O` [Example 11, ((R)-1-((S)-2-acetamido-6-(2-cyano-4-methylpent-2-enamido)hexanamido)-2-phenylethyl)boronic acid], the IC50 in test [2] turned out to be 390 nM; in test [3] it was 4 nM; in test [4], 2.6 nM.

Take `CC(C)C=C(C#N)C(=O)N(C)c1cccc(C[C@H](NC(=O)c2cnccn2)C(=O)N[C@@H](Cc2ccccc2)B(O)O)c1` [Example 21, ((R)-1-((S)-3-(3-(2-cyano-N,4-dimethylpent-2-enamido)phenyl)-2-(pyrazine-2-carboxamido)propanamido)-2-phenylethyl)boronic acid]: the IC50 in test [2] was determined as 73 nM; in test [3], 21.1 nM; in test [4], 2.5 nM.

Take `N#CC(=CC1CC1)C(=O)N1CCC[C@@H]1COC[C@H](NCC(F)(F)F)C(=O)N[C@@H](Cc1ccccc1)B(O)O` [Example 22, (R)-1-((S)-3-(((R)-1-(2-cyano-3-cyclopropylacryloyl)pyrrolidin-2-yl)methoxy)-2-(2,2,2-trifluoroethylamino)propanamido)-2-phenylethylboronic acid]: the IC50 in test [2] was 39 nM; in test [3] it was 308 nM; in test [4] it was 22 nM.

For the compound `CC(C)(C)C=C(C#N)C(=O)N1CCC[C@H]1CNC(=O)N[C@@H](Cc1ccccc1)B(O)O` [Example 39, ((R)-1-(3-(((S)-1-(2-cyano-4,4-dimethylpent-2-enoyl)pyrrolidin-2-yl)methyl)ureido)-2-phenylethyl)boronic acid], the half-maximal inhibitory concentration (IC50) in test [1] is greater than 5000 nM; in test [3], greater than 5000 nM; in test [4], 78.8 nM.

Take `CC(C)(C)C=C(C#N)C(=O)N1CCCC[C@H]1CNC(=O)N[C@@H](Cc1ccccc1)B(O)O` [Example 40, ((R)-1-(3-(((S)-1-(2-cyano-4,4-dimethylpent-2-enoyl)piperidin-2-yl)methyl)ureido)-2-phenylethyl)boronic acid]: the 50% inhibitory concentration (IC50) in test [1] is greater than 5000 nM; in test [3], greater than 5000 nM; in test [4], 669 nM.

As for `C=CC(=O)N1CCC[C@@H]1CNC(=O)N[C@@H](Cc1coc2ccccc12)B(O)O` [Example 41, ((R)-1-(3-(((R)-1-acryloylpyrrolidin-2-yl)methyl)ureido)-2-(benzofuran-3-yl)ethyl)boronic acid], the values for the IC50 in test [1], in test [3] and in test [4] were greater than 5000 nM, greater than 5000 nM and 30 nM, respectively.

Consider `Cc1ccc(C[C@H](NC(=O)NC[C@@H]2CCCN2C(=O)C(C#N)=CC(C)(C)C)B(O)O)cc1` [Example 42, ((R)-1-(3-(((S)-1-(2-cyano-4,4-dimethylpent-2-enoyl)pyrrolidin-2-yl)methyl)ureido)-2-(p-tolyl)ethyl)boronic acid], for which the figures for the half-inhibitory concentration (IC50) in test [1], in test [3] and in test [4] were greater than 5000 nM, greater than 5000 nM and 13 nM, respectively.

As to `Cc1ccc(C[C@H](NC(=O)NC[C@H]2CCCN2C(=O)C(C#N)=CC(C)(C)C)B(O)O)cc1` [Example 43, ((R)-1-(3-(((R)-1-(2-cyano-4,4-dimethylpent-2-enoyl)pyrrolidin-2-yl)methyl)ureido)-2-(p-tolyl)ethyl)boronic acid], the IC50 was greater than 5000 nM in test [1], greater than 5000 nM in test [3] and 4.4 nM in test [4].

On to `Cc1ccc(C[C@H](NC(=O)OC[C@H]2CCCN(C(=O)C(C#N)=CC(C)(C)C)C2)B(O)O)cc1` [Example 44, ((R)-1-(((((S)-1-(2-cyano-4,4-dimethylpent-2-enoyl)piperidin-3-yl)methoxy)carbonyl)amino)-2-(p-tolyl)ethyl)boronic acid], for which the IC50 in test [1] was greater than 5000 nM; in test [3] it was 2850 nM; in test [4] it was 2.2 nM.

Consider `CC(C)(C)C=C(C#N)C(=O)N1CCC[C@@H]1CNC(=O)N[C@@H](Cc1coc2ccccc12)B(O)O` [Example 45, ((R)-2-(benzofuran-3-yl)-1-(3-(((R)-1-(2-cyano-4,4-dimethylpent-2-enoyl)pyrrolidin-2-yl)methyl)ureido)ethyl)boronic acid], for which the IC50 in test [1] is greater than 5000 nM; in test [3], 2070 nM; in test [4] it was 4.7 nM.

On to `Cc1ccc(C[C@H](NC(=O)OC[C@H]2CCN(C(=O)C(C#N)=CC(C)(C)C)C2)B(O)O)cc1` [Example 46, ((R)-1-(((((S)-1-(2-cyano-4,4-dimethylpent-2-enoyl)pyrrolidin-3-yl)methoxy)carbonyl)amino)-2-(p-tolyl)ethyl)boronic acid], for which the IC50 is greater than 5000 nM in test [1], 1690 nM in test [3] and 4 nM in test [4].

As for `CC(C)(C=C(C#N)C(=O)N1CCC[C@@H]1CNC(=O)N[C@@H](Cc1coc2ccccc12)B(O)O)N1CCOCC1` [Example 47, ((R)-2-(benzofuran-3-yl)-1-(3-(((R)—1(2-cyano-4-methyl-4-morpholinopent-2-enoyl)pyrrolidin-2-yl)methyl)ureido)ethyl)boronic acid], the IC50 in test [1] is greater than 5000 nM; in test [3], 1900 nM; in test [4], 3.5 nM.

On to `CC(C)(C=C(C#N)C(=O)N1CCC[C@@H]1CNC(=O)N[C@@H](Cc1coc2ccccc12)B(O)O)N1CCN(C2COC2)CC1` [Example 48, ((R)-2-(benzofuran-3-yl)-1-(3-(((R)-1-(2-cyano-4-methyl-4-(4-(oxetan-3-yl)piperazin-1-yl)pent-2-enoyl)pyrrolidin-2-yl)methyl)ureido)ethyl)boronic acid], for which the IC50 in test [1] amounted to 3740 nM; in test [3], 383 nM; in test [4] it was 8.7 nM.

For `CC(C)(C=C(C#N)C(=O)N1C2CCC1(COC(=O)N[C@@H](Cc1ccccc1)B(O)O)CC2)N1CCC(F)(F)C1` [Example 57, (R)-(1-((((7-(2-cyano-4-(3,3-difluoropyrrolidin-1-yl)-4-methylpent-2-enoyl)-7-azabicyclo[2.2.1]heptan-1-yl)methoxy)carbonyl)amino)-2-phenylethyl)boronic acid], the half-inhibitory concentration (IC50) was 3190 nM in test [1], 1620 nM in test [3] and 2.6 nM in test [4].

`CC(C)(C=C(C#N)C(=O)N1CCC[C@H](OC(=O)N[C@@H](Cc2coc3ccccc23)B(O)O)C1)N1CCC(F)(F)C1` [Example 73, ((R)-2-(benzofuran-3-yl)-1-(((((S)-1-(2-cyano-4-(3,3-difluoropyrrolidin-1-yl)-4-methylpent-2-enoyl)piperidin-3-yl)oxy)carbonyl)amino)ethyl)boronic acid]: the results for the IC50 in test [1], in test [3] and in test [4] were greater than 5000 nM, 54.6 nM and 1.1 nM, respectively.

Take `CC(C)(C=C(C#N)C(=O)N1CCC[C@H](OC(=O)N[C@@H](Cc2ccc(F)cc2)B(O)O)C1)N1CCC(F)(F)C1` [Example 78, ((R)-1-(((((S)-1-(2-cyano-4-(3,3-difluoropyrrolidin-1-yl)-4-methylpent-2-enoyl)piperidin-3-yl)oxy)carbonyl)amino)-2-(4-fluorophenyl)ethyl)boronic acid]: the values for the IC50 in test [1], in test [3] and in test [4] were greater than 5000 nM, 501 nM and 2.3 nM, respectively.

For `COC(=O)N1CCN(C(C)(C)C=C(C#N)C(=O)N2CCC[C@H](OC(=O)N[C@@H](Cc3ccccc3)B(O)O)C2)CC1` [Example 83, ((R)-1-(((((S)-1-(2-cyano-4-(4-(methoxycarbonyl)piperazin-1-yl)-4-methylpent-2-enoyl)piperidin-3-yl)oxy)carbonyl)amino)-2-phenylethyl)boronic acid], the half-inhibitory concentration (IC50) is greater than 5000 nM in test [1], 944 nM in test [3] and 2.3 nM in test [4].

`C=CC(=O)N1CC[C@H](OC(=O)N[C@@H](Cc2ccccc2)B(O)O)C1` [Example 88, ((R)-1-(((((S)-1-acryloylpyrrolidin-3-yl)oxy)carbonyl)amino)-2-phenylethyl)boronic acid]: the figures for the IC50 in test [1], in test [3] and in test [4] were 1860 nM, 1610 nM and 113 nM, respectively.
